From ChEMBL document CHEMBL1140725, “Pradefovir: a prodrug that targets adefovir to the liver for the treatment of hepatitis B” (J Med Chem, 2008)

Columns and labels:
Rattus norvegicus [1] = experiment: Prodrug activation in Sprague-Dawley rat liver hepatocytes assessed as formation of adefovir diphosphate at 30 mg/kg, po after 8 hrs; type: organism-based, Hepatocyte; set-up: dose 30 mg/kg, route oral
Liver microsomes = experiment: Prodrug activation in Wistar rat liver microsome assessed as formation of adefovir at 250 uM after 5 mins
Hepatocyte = experiment: Prodrug activation in intracellular rat hepatocytes assessed as formation of adefovir diphosphate after 2 hrs; type: cell-based
Rattus norvegicus [2] = experiment: Cmax in rat liver at 30 mg/kg, po; type: ADME, organism-based; set-up: dose 30 mg/kg, route oral; details: in vivo
Kidney = experiment: Biodistribution in rat kidney at 30 mg/kg, po after 24 hrs; type: ADME, organism-based; set-up: dose 30 mg/kg, route oral; details: in vivo
Liver [3] = experiment: Biodistribution in rat liver at 30 mg/kg, po after 24 hrs; type: ADME, organism-based; set-up: dose 30 mg/kg, route oral; details: in vivo
Plasma = experiment: Biodistribution in rat plasma at 30 mg/kg, po after 24 hrs; type: ADME, organism-based; set-up: dose 30 mg/kg, route oral; details: in vivo
Liver [4] = experiment: Selectivity index, ratio of biodistribution in rat liver to kidney at 30 mg/kg, po after 24 hrs; type: organism-based; set-up: dose 30 mg/kg, route oral; details: in vivo
Rattus norvegicus [5] = experiment: Biodistribution in rat small intestine at 30 mg/kg, po after 24 hrs; type: ADME, organism-based; set-up: dose 30 mg/kg, route oral; details: in vivo
Intestine = experiment: Selectivity index, ratio of biodistribution in rat liver to intestine at 30 mg/kg, po after 24 hrs; type: organism-based; set-up: dose 30 mg/kg, route oral; details: in vivo

SMILES	Activity (Liver microsomes) [nmol/min/mg]	Activity (Hepatocyte) [nmol·h/g]	other results
CS(=O)(=O)O.Nc1ncnc2c1ncn2CCOCP1(=O)OCCC(c2cccc(Cl)c2)O1 (centres undefined)	–	–	Cmax (Rattus norvegicus [2]): 19.6 nmol/g
Nc1ncnc2c1ncn2CCOCP1(=O)OCCC(c2ccccc2)O1 (centres undefined)	2.9	149.1	Activity (Rattus norvegicus [1]): 0.6 nmol·h/g
Nc1ncnc2c1ncn2CCOCP1(=O)OCCC(c2cc(Cl)cc(Cl)c2)O1 (centres undefined)	1.9	64.4	Activity (Rattus norvegicus [1]): 2 nmol·h/g
Cc1cc(C)cc(C2CCOP(=O)(COCCn3cnc4c(N)ncnc43)O2)c1 (centres undefined)	1.6	40.7	–
CC(C)(C)c1ccc(C2CCOP(=O)(COCCn3cnc4c(N)ncnc43)O2)cc1 (centres undefined)	0.5	0	–
Nc1ncnc2c1ncn2CCOCP1(=O)OCCC(c2cccc(Br)c2)O1 (centres undefined)	1.9	70.3	Activity (Rattus norvegicus [1]): 2.2 nmol·h/g
COc1ccc(C2CCOP(=O)(COCCn3cnc4c(N)ncnc43)O2)cc1Br (centres undefined)	1.1	< 0.5	–
Nc1ncnc2c1ncn2CCOCP1(=O)OCCC(c2cccnc2)O1 (centres undefined)	2.9	26.7	–
Nc1ncnc2c1ncn2CCOCP1(=O)OCCC(c2ccoc2)O1 (centres undefined)	4	0	–
Nc1ncnc2c1ncn2CCOC[P@]1(=O)OCC[C@H](c2cccc(Cl)c2)O1	0.193	–	Cmax (Rattus norvegicus [2]): 5.4 nmol/g
Nc1ncnc2c1ncn2CCOCP1(=O)OCCC(c2c(Cl)cccc2Cl)O1 (centres undefined)	< 1	–	–
Nc1ncnc2c1ncn2CCOCP1(=O)OCCC(c2ccncc2)O1 (centres undefined)	4.5	106.2	Activity (Rattus norvegicus [1]): 1.2 nmol·h/g
Nc1ncnc2c1ncn2CCOCP1(=O)OCCC(c2ccsc2)O1 (centres undefined)	0.5	0	–
Nc1ncnc2c1ncn2CCOCP1(=O)OCCC(c2cccc(Cl)c2)O1 (cis isomer)	0.421	–	Drug uptake (Kidney): 196 nmol·h/g; Drug uptake (Liver [3]): 884 nmol·h/g; Drug uptake (Plasma): 55 nmol·h/g; Selectivity index (Liver [4]): 4.5; Drug uptake (Rattus norvegicus [5]): 118 nmol·h/g; Selectivity index (Intestine): 7.5; Cmax (Rattus norvegicus [2]): 8 nmol/g
Nc1ncnc2c1ncn2CCOCP1(=O)OCCC(c2cccc(Cl)c2)O1 (stereo in doubt; 3h)	10.9	109.3	Activity (Rattus norvegicus [1]): 6.6 nmol·h/g
Nc1ncnc2c1ncn2CCOCP1(=O)OCCC(c2cccc(Cl)c2)O1 (trans isomer)	< 0.01	–	–
CC(C)(C)C(=O)OCOP(=O)(COCCn1cnc2c(N)ncnc21)OCOC(=O)C(C)(C)C [ADEFOVIR DIPIVOXIL]	–	–	Drug uptake (Kidney): 742 nmol·h/g; Drug uptake (Liver [3]): 284 nmol·h/g; Drug uptake (Plasma): 34 nmol·h/g; Selectivity index (Liver [4]): 0.4; Drug uptake (Rattus norvegicus [5]): 3206 nmol·h/g; Selectivity index (Intestine): 0.08
Nc1ncnc2c1ncn2CCOC[P@@]1(=O)OCC[C@@H](c2cccc(Cl)c2)O1 [PRADEFOVIR]	0.51	–	Cmax (Rattus norvegicus [2]): 12.2 nmol/g

More lines, main results first:

Activity (Liver microsomes) [nmol/min/mg]	Activity (Hepatocyte) [nmol·h/g]	SMILES	other results
1.5	61.9	Nc1ncnc2c1ncn2CCOCP1(=O)OCCC(c2cc(F)cc(F)c2)O1 (centres undefined)	Activity (Rattus norvegicus [1]): 2.2 nmol·h/g
< 4.5	–	Nc1ncnc2c1ncn2CCOCP1(=O)OCCC(c2cccc(Cl)c2Cl)O1 (centres undefined)	–
2.5	9.8	Nc1ncnc2c1ncn2CCOCP1(=O)OCCC(c2ccc(Cl)cc2Cl)O1 (centres undefined)	–
6.2	–	Nc1ncnc2c1ncn2CCOCP1(=O)OCCC(c2ccccc2Cl)O1 (centres undefined)	–
3.5	43.1	Nc1ncnc2c1ncn2CCOCP1(=O)OCCC(c2ccccc2Br)O1 (centres undefined)	Activity (Rattus norvegicus [1]): 7.1 nmol·h/g
< 1	–	COc1ccc(Br)cc1C1CCOP(=O)(COCCn2cnc3c(N)ncnc32)O1 (centres undefined)	–
< 1	–	Nc1ncnc2c1ncn2CCOCP1(=O)OCCC(c2cccc(F)c2)O1 (centres undefined)	–
2.5	–	Nc1ncnc2c1ncn2CCOCP1(=O)OCCC(c2ccc(F)cc2F)O1 (centres undefined)	–
< 1	–	Nc1ncnc2c1ncn2CCOCP1(=O)OCCC(c2ccccc2F)O1 (centres undefined)	–
4	< 0.5	COc1ccc(Br)c(C2CCOP(=O)(COCCn3cnc4c(N)ncnc43)O2)c1 (centres undefined)	–
2.3	–	Nc1ncnc2c1ncn2CCOCP1(=O)OCCC(c2cc(F)ccc2F)O1 (centres undefined)	–
1.5	–	Nc1ncnc2c1ncn2CCOCP1(=O)OCCC(c2c(F)cccc2F)O1 (centres undefined)	–
1.5	6.2	Nc1ncnc2c1ncn2CCOCP1(=O)OCCC(c2ccc(Cl)c(Cl)c2)O1 (centres undefined)	–
6.3	–	Nc1ncnc2c1ncn2CCOCP1(=O)OCCC(c2cccc(F)c2F)O1 (centres undefined)	–
